Measured values reported in patent publication US20200017495A1, “NOVEL HETEROCYCLIC COMPOUNDS AND THEIR USE IN PREVENTING OR TREATING BACTERIAL INFECTIONS” (priority 2017, published 2020).

Tested on: Enterobacter cloacae (ECL) isolates
Assay: MIC of compounds alone and combined with antibacterials, broth microdilution (CLSI)
Assay type: cell-based
Outline: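 Log-phase isolates were inoculated at a final 5.10^5 CFU/mL in cation-adjusted Mueller-Hinton broth and incubated 16-20 h at 35° C in ambient air. MIC was the lowest concentration preventing visible growth; for combinations, the antibacterial MIC was read at each compound concentration.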

C=CC1=C(C(=O)O)N2C(=O)[C@@H](NC(=O)/C(=N\OCC(=O)O)c3csc(N)n3)[C@H]2SC1 [FIX, Cefixime]
MIC ATB in combination (ECL 260033, AF3 @ 8 μg/mL): >128 µg/mL | MIC ATB in combination (ECL 260033, CLA @ 4 μg/mL): >128 µg/mL | MIC ATB in combination (ECL 260253, AF2 @ 8 μg/mL): <0.25 µg/mL | MIC ATB in combination (ECL 260253, AF3 @ 8 μg/mL): <=0.25 μg/mL | MIC ATB in combination (ECL 260253, CLA @ 4 μg/mL): 64 µg/mL | MIC ATB in combination (ECL 260323, AF2 @ 8 μg/mL): <0.25 µg/mL | MIC ATB in combination (ECL 260323, AF3 @ 8 μg/mL): <0.25 µg/mL | MIC ATB in combination (ECL 260323, CLA @ 4 μg/mL): >128 µg/mL | MIC ATB in combination (ECL 260508, AF2 @ 8 μg/mL): <0.25 µg/mL | MIC ATB in combination (ECL 260508, AF3 @ 8 μg/mL): <=0.25 μg/mL | MIC ATB in combination (ECL 260508, CLA @ 4 μg/mL): 32 µg/mL | MIC ATB in combination (ECL HAN, AF2 @ 8 μg/mL): >128 µg/mL | MIC ATB in combination (ECL HAN, AF3 @ 8 μg/mL): >128 µg/mL | MIC ATB in combination (ECL HAN, CLA @ 4 μg/mL): >128 µg/mL | MIC ATB in combination (ECL NEM146383, AF2 @ 8 μg/mL): >128 µg/mL | MIC ATB in combination (ECL NEM146383, AF3 @ 8 μg/mL): 16 µg/mL | MIC ATB in combination (ECL NEM146383, CLA @ 4 μg/mL): >128 µg/mL | MIC ATB in combination (ECL P99, AF2 @ 8 μg/mL): 4 µg/mL | MIC ATB in combination (ECL P99, AF3 @ 8 μg/mL): 8 µg/mL | MIC ATB in combination (ECL P99, CLA @ 4 μg/mL): >128 µg/mL | MIC ATB in combination (ECL UFR12, AF2 @ 8 μg/mL): <=0.25 μg/mL | MIC ATB in combination (ECL UFR12, AF3 @ 8 μg/mL): <=0.25 μg/mL | MIC ATB in combination (ECL UFR12, CLA @ 4 μg/mL): 8 µg/mL | MIC ATB in combination (ECL UFR13, AF2 @ 8 μg/mL): 4 µg/mL | MIC ATB in combination (ECL UFR13, AF3 @ 8 μg/mL): 2 µg/mL | MIC ATB in combination (ECL UFR13, CLA @ 4 μg/mL): 128 µg/mL | MIC ATB in combination (ECL UFR14, AF2 @ 8 μg/mL): 32 µg/mL | MIC ATB in combination (ECL UFR14, AF3 @ 8 μg/mL): 32 µg/mL | MIC ATB in combination (ECL UFR14, CLA @ 4 μg/mL): >128 µg/mL | MIC ATB in combination (ECL UFR38, AF2 @ 8 μg/mL): <0.25 µg/mL | MIC ATB in combination (ECL UFR38, AF3 @ 8 μg/mL): >128 µg/mL | MIC ATB in combination (ECL UFR38, CLA @ 4 μg/mL): >128 µg/mL | MIC ATB in combination (ECL UFR51, AF2 @ 8 μg/mL): <0.25 µg/mL | MIC ATB in combination (ECL UFR51, AF3 @ 8 μg/mL): <0.25 µg/mL | MIC ATB in combination (ECL UFR51, CLA @ 4 μg/mL): >128 µg/mL | MIC ATB in combination (ECL UFR60, AF2 @ 8 μg/mL): 128 µg/mL | MIC ATB in combination (ECL UFR60, AF3 @ 8 μg/mL): 8 µg/mL | MIC ATB in combination (ECL UFR60, CLA @ 4 μg/mL): 128 µg/mL | MIC ATB in combination (ECL UFR70, AF2 @ 8 μg/mL): <=0.25 μg/mL | MIC ATB in combination (ECL UFR70, AF3 @ 8 μg/mL): <0.25 µg/mL | MIC ATB in combination (ECL UFR70, CLA @ 4 μg/mL): >128 µg/mL | MIC ATB in combination (ECL UFR84, AF2 @ 8 μg/mL): >128 µg/mL | MIC ATB in combination (ECL UFR84, AF3 @ 8 μg/mL): 64 µg/mL | MIC ATB in combination (ECL UFR84, CLA @ 4 μg/mL): >128 µg/mL | MIC ATB in combination (ECL UFR85, AF2 @ 8 μg/mL): <0.25 µg/mL | MIC ATB in combination (ECL UFR85, AF3 @ 8 μg/mL): 1 µg/mL | MIC ATB in combination (ECL UFR85, CLA @ 4 μg/mL): >128 µg/mL | MIC ATB in combination (ECL UFR200, AF2 @ 8 μg/mL): 1 µg/mL | MIC ATB in combination (ECL UFR200, AF3 @ 8 μg/mL): 0.5 µg/mL | MIC ATB in combination (ECL UFR200, CLA @ 4 μg/mL): 16 µg/mL | MIC (strain ECL 2185D, genotype OXA-163): >128 µg/mL | MIC (strain ECL 190310, genotype AmpC): >128 µg/mL | MIC (strain ECL 190408, genotype TEM-1, CTX-M-15, OXA-1): 512 µg/mL | MIC (strain ECL 200138, genotype AmpC): >128 µg/mL | MIC (strain ECL 200322, genotype TEM-1, CTX-M-15, OXA-1): >128 µg/mL | MIC (strain ECL 260033, genotype AmpC): >128 µg/mL | MIC (strain ECL 260253, genotype TEM-1, KPC-3): >128 µg/mL | MIC (strain ECL 260323, genotype AmpC): >128 µg/mL | MIC (strain ECL 260508, genotype TEM-1, CTX-M-15): >128 µg/mL | MIC (strain ECL HAN, genotype OXA-35): >128 µg/mL | MIC (strain ECL NEM146383, genotype AmpC): >128 µg/mL | MIC (strain ECL P99, genotype AmpC): >128 µg/mL | MIC (strain ECL UFR12, genotype CTX-M-9, OXA-48): 16 µg/mL | MIC (strain ECL UFR13, genotype TEM-1, SHV-12, CTX-M-9, OXA-48): >128 µg/mL | MIC (strain ECL UFR14, genotype TEM-1, SHV-12, CTX-M-15, DHA-1, OXA-1, OXA-48): >128 µg/mL | MIC (strain ECL UFR38, genotype CTX-M-15, NDM-1): >128 µg/mL | MIC (strain ECL UFR51, genotype SHV-12, IMP-8): >128 µg/mL | MIC (strain ECL UFR60, genotype TEM-1, CTX-M-15, KPC-2): >128 µg/mL | MIC (strain ECL UFR70, genotype TEM-1, CTX-M-15, CMY-2, OXA-1, Porin loss): >128 µg/mL | MIC (strain ECL UFR84, genotype TEM-1, AmpC, OXA-1): >128 µg/mL | MIC (strain ECL UFR85, genotype TEM-1, CTX-M-15, AmpC): >128 µg/mL | MIC (strain ECL UFR192, genotype TEM-1, NDM-1, antibiotic alone): >128 µg/mL | MIC ATB in combination (strain ECL UFR192, with AF2 @ 8 μg/mL): >128 µg/mL | MIC ATB in combination (strain ECL UFR192, with AF3 @ 8 μg/mL): >128 µg/mL | MIC ATB in combination (strain ECL UFR192, with CLA @ 4 μg/mL): >128 µg/mL | MIC (strain ECL UFR193, genotype TEM-1, CTX-M-15, OXA-1, NDM-1, RmtC, antibiotic alone): >128 µg/mL | MIC ATB in combination (strain ECL UFR193, with AF2 @ 8 μg/mL): >128 µg/mL | MIC ATB in combination (strain ECL UFR193, with AF3 @ 8 μg/mL): <=0.25 μg/mL | MIC ATB in combination (strain ECL UFR193, with CLA @ 4 μg/mL): >128 µg/mL | MIC (strain ECL UFR194, genotype OXA-48): 4 µg/mL | MIC ATB in combination (strain ECL UFR194, with AF2 @ 8 μg/mL): <=0.25 μg/mL | MIC ATB in combination (strain ECL UFR194, with AF3 @ 8 μg/mL): <=0.25 μg/mL | MIC ATB in combination (strain ECL UFR194, with CLA @ 4 μg/mL): 8 µg/mL | MIC (strain ECL UFR195, genotype TEM-1, CTX-M-15, OXA-1, OXA-48): >128 µg/mL | MIC ATB in combination (strain ECL UFR195, with AF2 @ 8 μg/mL): 8 µg/mL | MIC ATB in combination (strain ECL UFR195, with AF3 @ 8 μg/mL): 0.5 µg/mL | MIC ATB in combination (strain ECL UFR195, with CLA @ 4 μg/mL): >128 µg/mL | MIC (strain ECL UFR196, genotype TEM-1, CTX-M-15, OXA-1, OXA-48): >128 µg/mL | MIC ATB in combination (strain ECL UFR196, with AF2 @ 8 μg/mL): 8 µg/mL | MIC ATB in combination (strain ECL UFR196, with AF3 @ 8 μg/mL): 2 µg/mL | MIC ATB in combination (strain ECL UFR196, with CLA @ 4 μg/mL): >128 µg/mL | MIC (strain ECL UFR197, genotype TEM-1, CTX-M-15, OXA-1, OXA-48): >128 µg/mL | MIC ATB in combination (strain ECL UFR197, with AF2 @ 8 μg/mL): 32 µg/mL | MIC ATB in combination (strain ECL UFR197, with AF3 @ 8 μg/mL): 4 µg/mL | MIC ATB in combination (strain ECL UFR197, with CLA @ 4 μg/mL): 128 µg/mL | MIC (strain ECL UFR198, genotype TEM-1, SHV-12, CTX-M-15, DHA-1, OXA-1, OXA-48): >128 µg/mL | MIC ATB in combination (strain ECL UFR198, with AF2 @ 8 μg/mL): 128 µg/mL | MIC ATB in combination (strain ECL UFR198, with AF3 @ 8 μg/mL): 32 µg/mL | MIC ATB in combination (strain ECL UFR198, with CLA @ 4 μg/mL): >128 µg/mL | MIC (strain ECL UFR200, genotype TEM-1, SHV-12, KPC-2): >128 µg/mL | MIC (strain ECL UFR203, genotype TEM-1, SHV-12, VIM-1, antibiotic alone): >128 µg/mL | MIC ATB in combination (strain ECL UFR203, with AF2 @ 8 μg/mL): >128 µg/mL | MIC ATB in combination (strain ECL UFR203, with AF3 @ 8 μg/mL): >128 µg/mL | MIC ATB in combination (strain ECL UFR203, with CLA @ 4 μg/mL): >128 µg/mL | MIC (strain ECL UFR214, genotype TEM-1, SHV-31, CTX-M-15, VIM-4, antibiotic alone): >128 µg/mL | MIC ATB in combination (strain ECL UFR214, with AF2 @ 8 μg/mL): >128 µg/mL | MIC ATB in combination (strain ECL UFR214, with AF3 @ 8 μg/mL): >128 µg/mL | MIC ATB in combination (strain ECL UFR214, with CLA @ 4 μg/mL): >128 µg/mL | MIC (strain ECL UFR252PT, genotype VIM-2, antibiotic alone): >128 µg/mL | MIC ATB in combination (strain ECL UFR252PT, with AF2 @ 8 μg/mL): >128 µg/mL | MIC ATB in combination (strain ECL UFR252PT, with AF3 @ 8 μg/mL): >128 µg/mL | MIC ATB in combination (strain ECL UFR252PT, with CLA @ 4 μg/mL): >128 µg/mL
